Where two headings read alike, the source gives them in different places.
Experiments:
[1] = Tolerability and deaths in E0771 study (Example 3); type: in vivo, Mouse; details: single agent paclitaxel 15 mg/kg; considered non-specific deaths, treatment not completely ruled out
Excerpt: Animals euthanized during the same period for other causes (sampling, accidental trauma, etc.) are excluded from this calculation. […] (Group toxicity parameter)

[2] = test system: orthotopic E0771 murine mammary carcinoma; details: for anti-tumor activity (in words): BT17BDC-18 at 6.2 mg/kg or 4.8 mg/kg, anti-mPD-1 10 mg/kg, paclitaxel 15 mg/kg
Excerpt: The purpose of this study was to evaluate the anti-cancer activity of BT17BDC-18 alone and in combination with anti-mPD-1 against established orthotopic E0771 murine mammary carcinoma in female C57BL/6 mice.
All mice were sorted into study groups based on caliper estimation of tumor burden. The mice were distributed to ensure that the mean tumor burden for all groups was within 10% of the overall mean tumor burden for the study population.
All animals weighed at least 16.6 g at the initiation of therapy. […] A tumor burden of 2000 mm^3, was chosen for evaluation of efficacy by time to progression (time to euthanasia/death).
Treatment-related weight change—This is a group endpoint calculated from the group mean body weights. It is calculated differently for specific circumstances as follows: • If (at any point between the first day of treatment and two weeks after the final treatment) the mean group body weight decreases by more than 2%, the maximum weight loss is reported, even if body weight eventually rebounded during treatment to a net weight gain. […] To assess the contribution of test agents to weight loss, Net Treatment Related Weight Loss may be used. […] When this occurs, net weight loss is calculated by normalizing for tumor burden. We do this by constructing a plot of control group mean tumor burden vs control group mean weight loss, using all of the weight data available for the control group. […] This value is then subtracted from the mean weight loss in the treated group to generate the net weight loss for the treated group on that day. The calculated net weight loss is then used to estimate the tolerance to the drug.
Time to Progression (TP)—Time to progression is a surrogate for lifespan, time on study, or lifespan. It is used for studies that involve IACUC mandated euthanasia of animals for excessive tumor burdens (even if the animals otherwise appear normal). The mandated tumor burden limit is tumor model dependent. TP data is analyzed by Kaplan Meier methods just as traditional life span data. The Time to Progression for an individual animal is the number of days between initiation of treatment and the death or required euthanasia of that animal. […] This puts all animals on the same footing, and removes the impact of possibly delayed euthanasia (which may occur for sampling, or weekends and holidays). Animals euthanized for scheduled sampling or other causes unrelated to disease progression or therapy are excluded from this calculation. The median Time to Progression for a group is used to calculate the % Increase in Time to Progression (% ITP).
% Increase in Time to Progression (% ITP)—% ITP is a group endpoint.
Complete Regression (CR)—An animal is credited a complete regression if its tumor burden is reduced to an immeasurable volume at any point after the first treatment. Our convention is to record any tumor measurement less than 5 mm as a “0.” The CR must be maintained for at least 2 consecutive measurements. This is in keeping with the convention of the NCI and reflects the inherent and unacceptably high mechanical error in such measurements in addition to the uncertain biology of what is measured at those small sizes.

[3] = BT17BDC-18 6.2 mg/kg IV Q7Dx4, anti-mPD-1 10 mg/kg IP, paclitaxel 15 mg/kg IV Q7Dx4, alone or combined

CC(=O)O[C@H]1C(=O)[C@@]2(C)[C@H]([C@H](OC(=O)c3ccccc3)[C@]3(O)C[C@H](OC(=O)[C@H](O)[C@@H](NC(=O)c4ccccc4)c4ccccc4)C(C)=C1C3(C)C)[C@]1(OC(C)=O)CO[C@@H]1C[C@@H]2O [Paclitaxel]
deaths in group [1]: two
% increase in time to progression [2, 3]: 17.9%
Day 36 median ΔT/ΔC [2, 3]: 94%
increase in time to progression [2, 3]: 4.0 days
anti-tumor activity (in words) [2]: Poor response
anti-tumor activity (in words) ([2]; listed as paclitaxel): mildly active

Source: patent US11414488B2, “Methods for treating cancer” (BicycleRD Limited, priority 2019, dated 2022)
